Laboratory results as given in patent US7947717B2 (priority 2008, dated 2011).
pIC50, pKi: −log10 of the molar value. Read-outs that look alike come from different tables or passages of the source.

How the values were obtained:
human CYP2C9 = human CYP2C9 (Homo sapiens, UniProt P11712); assay: biochemical
human CYP1A2 = target: T1, human CYP1A2 (Homo sapiens, UniProt P05177); assay: biochemical
T1 sequence (P05177 1-516): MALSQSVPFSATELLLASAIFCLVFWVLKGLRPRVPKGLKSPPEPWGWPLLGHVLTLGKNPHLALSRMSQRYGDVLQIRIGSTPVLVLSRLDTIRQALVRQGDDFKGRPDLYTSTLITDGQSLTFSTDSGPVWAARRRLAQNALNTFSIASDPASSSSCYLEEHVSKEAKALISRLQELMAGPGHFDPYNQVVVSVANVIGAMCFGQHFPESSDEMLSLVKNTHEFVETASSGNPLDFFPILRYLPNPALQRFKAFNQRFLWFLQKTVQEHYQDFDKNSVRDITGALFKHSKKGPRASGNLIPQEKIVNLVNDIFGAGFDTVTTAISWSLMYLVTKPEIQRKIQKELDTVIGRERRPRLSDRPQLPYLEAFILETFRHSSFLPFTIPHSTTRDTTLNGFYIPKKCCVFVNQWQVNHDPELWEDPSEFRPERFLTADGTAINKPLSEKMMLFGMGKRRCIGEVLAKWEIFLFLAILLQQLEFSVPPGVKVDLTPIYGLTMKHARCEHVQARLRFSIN

physchem = details: 23 °C, pH 7.4, aqueous with cosolvent or surfactant or cyclodextrin, kinetic from dmso stock
human CYP 2C19 = human CYP 2C19 (Homo sapiens, UniProt P33261); assay: biochemical
hERG = hERG (Homo sapiens, UniProt Q12809); assay: in vitro
lethal factor (LF) = lethal factor (LF) (Bacillus anthracis, UniProt P15917); assay: biochemical; type: biochemical; details: for IC50: read-out: IC50 (μM) of selected LF compounds (Table 7)
in vitro [1] = details: s9
in vitro [2] = details: rat, hepatocytes, pH 7.4
human CYP2D6 = human CYP2D6 (Homo sapiens, UniProt P10635); assay: biochemical
HepG2 cells = details: human
[3] = rat
[4] = test system: Bacillus anthracis Sterne spores; set-up: species or system A/J mice; details: mouse, in vivo
MMP-2 = target: T2, MMP-2 (Homo sapiens, UniProt P08253); assay: MMP-2 assay (Anaspec kit); type: biochemical
T2 construct: purchased Anaspec, Inc. 71151/71155
T2 sequence (P08253 110-660): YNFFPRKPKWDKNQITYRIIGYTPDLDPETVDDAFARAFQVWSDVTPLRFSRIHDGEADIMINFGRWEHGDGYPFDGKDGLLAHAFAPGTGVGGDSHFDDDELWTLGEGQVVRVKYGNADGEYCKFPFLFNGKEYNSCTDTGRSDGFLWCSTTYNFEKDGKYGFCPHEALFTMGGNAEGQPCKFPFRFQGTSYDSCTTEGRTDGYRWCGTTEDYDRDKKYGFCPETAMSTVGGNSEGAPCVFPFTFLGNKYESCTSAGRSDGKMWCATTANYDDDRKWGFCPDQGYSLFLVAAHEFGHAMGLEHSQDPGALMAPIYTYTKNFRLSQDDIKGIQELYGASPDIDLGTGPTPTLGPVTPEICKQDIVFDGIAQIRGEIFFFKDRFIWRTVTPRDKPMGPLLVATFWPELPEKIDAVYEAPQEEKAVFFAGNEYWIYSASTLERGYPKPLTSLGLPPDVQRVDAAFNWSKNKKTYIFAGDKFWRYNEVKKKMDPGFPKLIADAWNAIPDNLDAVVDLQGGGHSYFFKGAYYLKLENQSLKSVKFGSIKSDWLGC

BoNT A = BoNT A (Clostridium botulinum, UniProt P0DPI0); assay: biochemical
RAW 264.7 cells = type: cell-based, Murine
MMP-9 = target: T3, MMP-9 (Homo sapiens, UniProt P14780); assay: MMP-9 assay (Anaspec kit); type: biochemical
T3 construct: purchased Anaspec, Inc. 71151/71155

human CYP3A4 = human CYP3A4 (Homo sapiens, UniProt P08684); assay: biochemical
[5] = rat, hepatocytes
[6] = not given; remark: listed apart in the source
human MDR1 ABCB1/Pgp = human MDR1 ABCB1/Pgp (Homo sapiens, UniProt P08183)
LF metalloproteinase = LF metalloproteinase (Bacillus anthracis, UniProt P15917); details: read-out: Ki of LF metalloproteinase activity; cited from earlier work

Chain of lethal factor (LF) (P15917 34-809 limits assumed): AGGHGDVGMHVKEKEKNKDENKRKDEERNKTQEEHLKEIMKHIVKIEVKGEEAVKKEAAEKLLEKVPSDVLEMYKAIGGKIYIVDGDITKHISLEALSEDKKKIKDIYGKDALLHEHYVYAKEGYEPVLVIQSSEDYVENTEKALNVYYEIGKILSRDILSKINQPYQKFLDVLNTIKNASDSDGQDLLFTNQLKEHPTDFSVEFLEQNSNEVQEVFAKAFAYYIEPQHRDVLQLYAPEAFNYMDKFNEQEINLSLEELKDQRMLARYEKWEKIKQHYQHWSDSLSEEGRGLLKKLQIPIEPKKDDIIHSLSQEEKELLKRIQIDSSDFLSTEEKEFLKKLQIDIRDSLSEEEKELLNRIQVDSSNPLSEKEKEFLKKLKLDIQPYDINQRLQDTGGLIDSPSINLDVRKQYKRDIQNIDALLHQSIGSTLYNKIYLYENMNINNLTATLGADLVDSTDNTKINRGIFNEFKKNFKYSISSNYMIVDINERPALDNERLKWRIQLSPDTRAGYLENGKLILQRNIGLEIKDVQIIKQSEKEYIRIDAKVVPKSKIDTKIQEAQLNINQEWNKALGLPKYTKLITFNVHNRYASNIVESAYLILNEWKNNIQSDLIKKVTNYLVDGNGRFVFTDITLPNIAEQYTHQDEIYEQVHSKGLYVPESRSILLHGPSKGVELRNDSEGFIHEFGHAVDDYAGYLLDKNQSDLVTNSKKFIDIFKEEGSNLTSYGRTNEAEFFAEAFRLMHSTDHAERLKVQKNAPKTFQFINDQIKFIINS
Chain of BoNT A (P0DPI0 whole entry, looked up): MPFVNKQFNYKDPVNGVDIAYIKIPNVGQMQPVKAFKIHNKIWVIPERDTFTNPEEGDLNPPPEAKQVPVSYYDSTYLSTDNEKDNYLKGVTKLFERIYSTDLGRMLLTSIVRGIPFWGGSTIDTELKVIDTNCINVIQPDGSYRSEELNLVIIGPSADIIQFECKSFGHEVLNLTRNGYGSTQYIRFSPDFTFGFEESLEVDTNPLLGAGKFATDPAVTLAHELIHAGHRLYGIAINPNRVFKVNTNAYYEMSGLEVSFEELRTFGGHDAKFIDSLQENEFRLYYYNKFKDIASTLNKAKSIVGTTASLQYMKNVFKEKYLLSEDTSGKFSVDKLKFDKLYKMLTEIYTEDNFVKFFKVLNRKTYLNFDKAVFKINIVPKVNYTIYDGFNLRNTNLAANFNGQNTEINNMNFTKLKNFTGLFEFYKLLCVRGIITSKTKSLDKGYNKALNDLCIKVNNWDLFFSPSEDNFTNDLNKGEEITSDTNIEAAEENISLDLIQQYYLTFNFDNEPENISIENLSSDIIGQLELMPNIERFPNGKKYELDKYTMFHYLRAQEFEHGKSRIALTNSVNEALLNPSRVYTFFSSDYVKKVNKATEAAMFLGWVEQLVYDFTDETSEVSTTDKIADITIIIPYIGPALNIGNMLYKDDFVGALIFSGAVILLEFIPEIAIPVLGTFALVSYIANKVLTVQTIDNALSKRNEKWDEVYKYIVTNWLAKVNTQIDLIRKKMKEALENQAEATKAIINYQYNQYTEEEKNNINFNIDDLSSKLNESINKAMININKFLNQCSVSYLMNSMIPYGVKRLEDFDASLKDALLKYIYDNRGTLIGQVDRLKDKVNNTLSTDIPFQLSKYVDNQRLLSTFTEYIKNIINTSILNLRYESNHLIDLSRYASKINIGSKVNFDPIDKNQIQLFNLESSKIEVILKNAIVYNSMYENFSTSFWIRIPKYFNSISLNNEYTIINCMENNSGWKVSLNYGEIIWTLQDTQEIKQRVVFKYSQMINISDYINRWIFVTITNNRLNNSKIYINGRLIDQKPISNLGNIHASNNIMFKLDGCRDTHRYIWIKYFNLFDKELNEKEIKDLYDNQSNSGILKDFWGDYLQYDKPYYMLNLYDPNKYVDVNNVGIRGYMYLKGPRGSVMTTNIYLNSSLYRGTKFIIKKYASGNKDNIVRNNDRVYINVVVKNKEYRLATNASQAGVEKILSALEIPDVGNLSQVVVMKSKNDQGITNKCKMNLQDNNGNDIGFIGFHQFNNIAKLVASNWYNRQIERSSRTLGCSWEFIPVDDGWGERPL
Chain of human CYP2C9 (P11712 whole entry): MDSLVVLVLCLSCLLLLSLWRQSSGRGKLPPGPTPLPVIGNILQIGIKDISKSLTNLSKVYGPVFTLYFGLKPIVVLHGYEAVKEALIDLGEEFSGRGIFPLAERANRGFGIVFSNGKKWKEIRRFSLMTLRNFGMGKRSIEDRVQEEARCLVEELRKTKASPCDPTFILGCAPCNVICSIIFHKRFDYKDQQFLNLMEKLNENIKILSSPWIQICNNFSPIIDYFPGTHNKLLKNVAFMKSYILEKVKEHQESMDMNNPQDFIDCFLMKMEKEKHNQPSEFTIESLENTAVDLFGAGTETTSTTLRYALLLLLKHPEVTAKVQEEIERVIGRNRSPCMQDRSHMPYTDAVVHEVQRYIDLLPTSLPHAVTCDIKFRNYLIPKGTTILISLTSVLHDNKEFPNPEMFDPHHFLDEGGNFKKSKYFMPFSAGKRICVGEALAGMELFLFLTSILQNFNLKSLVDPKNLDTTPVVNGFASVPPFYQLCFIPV
Chain of human CYP2D6 (P10635 whole entry): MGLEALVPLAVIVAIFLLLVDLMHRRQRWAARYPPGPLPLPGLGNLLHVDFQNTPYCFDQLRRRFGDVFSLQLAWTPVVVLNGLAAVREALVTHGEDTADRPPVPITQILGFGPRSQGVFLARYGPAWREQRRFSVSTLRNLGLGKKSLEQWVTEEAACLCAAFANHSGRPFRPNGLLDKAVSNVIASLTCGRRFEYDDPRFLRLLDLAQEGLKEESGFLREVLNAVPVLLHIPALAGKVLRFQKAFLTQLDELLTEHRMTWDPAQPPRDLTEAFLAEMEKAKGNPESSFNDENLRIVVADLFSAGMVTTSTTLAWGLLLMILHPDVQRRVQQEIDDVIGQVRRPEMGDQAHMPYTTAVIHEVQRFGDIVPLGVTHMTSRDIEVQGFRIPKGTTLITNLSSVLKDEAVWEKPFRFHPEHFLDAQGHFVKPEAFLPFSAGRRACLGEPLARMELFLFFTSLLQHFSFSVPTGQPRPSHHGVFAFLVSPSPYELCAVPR
Chain of hERG (Q12809 whole entry): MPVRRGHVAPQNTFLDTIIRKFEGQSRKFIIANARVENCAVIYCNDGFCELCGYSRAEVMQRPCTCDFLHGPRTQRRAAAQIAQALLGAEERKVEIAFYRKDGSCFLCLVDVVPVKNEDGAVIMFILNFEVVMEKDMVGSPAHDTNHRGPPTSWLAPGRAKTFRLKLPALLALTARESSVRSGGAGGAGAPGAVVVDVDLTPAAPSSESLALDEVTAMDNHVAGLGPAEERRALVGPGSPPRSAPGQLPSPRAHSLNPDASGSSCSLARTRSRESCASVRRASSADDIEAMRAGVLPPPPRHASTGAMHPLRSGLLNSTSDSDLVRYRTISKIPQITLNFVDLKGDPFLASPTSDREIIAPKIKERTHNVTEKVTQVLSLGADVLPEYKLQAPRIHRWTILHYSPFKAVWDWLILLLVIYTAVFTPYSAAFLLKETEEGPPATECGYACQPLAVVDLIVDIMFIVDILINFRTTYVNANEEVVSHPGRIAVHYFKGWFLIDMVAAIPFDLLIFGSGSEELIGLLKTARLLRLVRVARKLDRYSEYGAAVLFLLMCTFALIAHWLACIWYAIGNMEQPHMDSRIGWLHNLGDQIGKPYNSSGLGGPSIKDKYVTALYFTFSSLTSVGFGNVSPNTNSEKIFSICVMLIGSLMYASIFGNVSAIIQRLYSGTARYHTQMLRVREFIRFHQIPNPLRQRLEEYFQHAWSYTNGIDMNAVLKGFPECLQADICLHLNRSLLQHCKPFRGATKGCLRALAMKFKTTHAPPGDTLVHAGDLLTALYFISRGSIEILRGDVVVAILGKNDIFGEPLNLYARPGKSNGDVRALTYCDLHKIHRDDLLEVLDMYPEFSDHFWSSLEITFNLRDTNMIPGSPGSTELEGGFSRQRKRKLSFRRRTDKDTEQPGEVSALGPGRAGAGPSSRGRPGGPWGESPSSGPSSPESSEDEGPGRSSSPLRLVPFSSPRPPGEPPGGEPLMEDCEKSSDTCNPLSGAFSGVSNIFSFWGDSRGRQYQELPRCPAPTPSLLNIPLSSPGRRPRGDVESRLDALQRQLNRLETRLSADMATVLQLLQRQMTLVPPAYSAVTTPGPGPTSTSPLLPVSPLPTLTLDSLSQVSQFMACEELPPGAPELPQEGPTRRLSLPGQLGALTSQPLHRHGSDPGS
Chain of human CYP 2C19 (P33261 whole entry): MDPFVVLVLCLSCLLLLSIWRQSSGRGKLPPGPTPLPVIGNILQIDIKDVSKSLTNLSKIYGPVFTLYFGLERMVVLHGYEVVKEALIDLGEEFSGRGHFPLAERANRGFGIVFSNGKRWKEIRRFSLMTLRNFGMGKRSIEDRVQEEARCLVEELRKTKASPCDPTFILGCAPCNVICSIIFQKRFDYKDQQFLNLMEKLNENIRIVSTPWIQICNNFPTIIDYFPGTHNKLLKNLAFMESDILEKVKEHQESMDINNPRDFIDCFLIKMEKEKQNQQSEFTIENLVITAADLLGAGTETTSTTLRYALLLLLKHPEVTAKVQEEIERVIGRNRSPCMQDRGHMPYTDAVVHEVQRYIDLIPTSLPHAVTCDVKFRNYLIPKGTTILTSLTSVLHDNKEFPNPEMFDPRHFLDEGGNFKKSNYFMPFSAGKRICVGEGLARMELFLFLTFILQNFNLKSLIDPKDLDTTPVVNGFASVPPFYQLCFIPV

| SMILES | pIC50 (human CYP2C9) | pIC50 (human CYP1A2) | solubility kinetic (physchem) [µg/mL] | pIC50 (human CYP 2C19) | inhibition at 30 µM (hERG) [%] | pIC50 (human CYP2D6) | Cytox. (c) Cytotoxicity against HepG2 cells (HepG2 cells) | Plasma Stab. T = 30 min (l) [3] [%] | pIC50 (BoNT A) | protection of macrophages from LF/PA-induced cell death (RAW 264.7 cells) | pIC50 (lethal factor (LF); pH 7.4, read-out: LF IC50) | IC50 (lethal factor (LF)) [µM] | also measured |
| --- | --- | --- | --- | --- | --- | --- | --- | --- | --- | --- | --- | --- | --- |
| COc1ccc(-c2ccc(/C=C3\SC(=S)N(CC(=O)O)C3=O)o2)cc1Cl [Compound 1] | 4.55 | 4.68 | < 10 | 4.50 | 58 | 4.52 | Nontoxic up to 100 μM | 90 |  |  |  |  | pIC50 (lethal factor (LF)): 6.54; half-life (in vitro [1]): 128 min; hepatocyte CLint (in vitro [1]): 5.6; half-life (in vitro [2]): 37.1 min; hepatocyte CLint (in vitro [2]): 21.6 µL/min/1e6 cells |
| O=C(O)CN1C(=O)/C(=C/c2cn(-c3ccc(Cl)cc3)nc2-c2ccc(Cl)cc2)SC1=S [Compound 34, (Z)-2-(5-((1,3-bis(4-chlorophenyl)-1H-pyrazol-4-yl)methylene)-4-oxo-2-thioxothiazolidin-3-yl)acetic acid] |  |  |  |  |  |  |  |  | 5.09 | protect macrophages from LF/PA-induced cell death | 5.53 |  | survival compared to control group (in words, FIG. 3) [4]: survived significantly better than control; inhibition of MMP-2 (in words) (MMP-2): did not inhibit; inhibition of MMP-9 (in words) (MMP-9): did not inhibit |
| O=C1/C(=C/c2cn(-c3ccccc3)nc2-c2ccc(OCc3ccc(Cl)cc3)cc2)SC(=S)N1CCS(=O)(=O)O [Compound 38, (Z)-2-(5-((3-(4-(4-chlorobenzyloxy)phenyl)-1-phenyl-1H-pyrazol-4-yl)methylene)-4-oxo-2-thioxothiazolidin-3-yl)ethanesulfonic acid] |  |  |  |  |  |  |  |  | < 3.70 | protect macrophages from LF/PA-induced cell death | 5.61 |  | pIC50 (MMP-2): 5.00 |
| CC1Cc2cc(-c3nn(-c4ccccc4)cc3/C=C3\SC(=S)N(CCS(=O)(=O)O)C3=O)ccc2O1 (stereo not shown) [Compound 39, (Z)-2-(5-((3-(2-methyl-2,3-dihydrobenzofuran-5-yl)-1-phenyl-1H-pyrazol-4-yl)methylene)-4-oxo-2-thioxothiazolidin-3-yl)ethanesulfonic acid] |  |  |  |  |  |  |  |  | < 3.70 | protect macrophages from LF/PA-induced cell death | 5.64 |  |  |
| COc1ccc(-c2nn(-c3ccccc3)cc2/C=C2\SC(=S)N(CCS(=O)(=O)O)C2=O)cc1 [Compound 40, (Z)-2-(5-((3-(4-methoxyphenyl)-1-phenyl-1H-pyrazol-4-yl)methylene)-4-oxo-2-thioxothiazolidin-3-yl)ethanesulfonic acid] |  |  |  |  |  |  |  |  | < 3.70 | protect macrophages from LF/PA-induced cell death | 5.69 |  | pIC50 (MMP-2): 4.46 |
| O=C(O)CN1C(=O)/C(=C/c2ccc(-c3ccc(Cl)c(Cl)c3)o2)SC1=S [Compound 64] | < 4.30 | 5.55 | < 10 | 4.43 | 67 | 4.32 | Nontoxic up to 100 μM | 79 |  |  |  | 0.26 | Liver S9 Stab t1/2 (m): Degraded; pIC50 (human CYP3A4): < 4.30; Met. Stab. t1/2 (k) [5]: Degraded; Pampa (d) permeability class [6]: Med. |
| O=C(O)CN1C(=O)/C(=C/c2ccc(-c3cc(C(F)(F)F)ccc3Cl)o2)SC1=S [Compound 65] | < 4.00 | 4.69 | < 10 | < 4.00 | 45 | < 4.00 | Nontoxic up to 100 μM | 82 |  |  |  | 0.19 | pIC50 (human MDR1 ABCB1/Pgp): < 4.00; half-life (in vitro [1]): 37.3 min; hepatocyte CLint (in vitro [1]): 25; half-life (in vitro [2]): 42.4 min; hepatocyte CLint (in vitro [2]): 19.8 µL/min/1e6 cells |
| O=C(O)CN1C(=O)/C(=C/c2ccc(-c3cccs3)s2)SC1=S [Compound 66, (Z)-2-(4-oxo-5-((5-(thiophen-2-yl)thiophen-2-yl)methylene)-2-thioxothiazolidin-3-yl)acetic acid] | < 4.00 |  | < 10 |  | 29 |  | Nontoxic up to 100 μM | 90 |  |  |  | 2.3 | Liver S9 Stab t1/2 (m): Degraded; Met. Stab. t1/2 (k) [5]: Degraded; Pampa (d) permeability class [6]: Med. |
| CNC(=O)[C@H](Cc1c[nH]c2ccccc12)NC(=O)[C@@H](CC(=O)NO)CC(C)C [GM6001] |  |  |  |  |  |  |  |  |  |  |  |  | pKi (LF metalloproteinase): ~5.30 |
